Results reported in paper PMC5658362 (Scientific Reports, 2017).
Entries after “also recorded” stand apart in the source; their conditions may differ. Where a name gives a salt, the structure may show the parent alone.

Key:
ΔtlpC H. pylori PMSS1 = assay: Swimming behaviour (direction change) chemotaxis assay, ΔtlpC mutant; format: cell-based, Helicobacter pylori
TlpC LBD native = TlpC LBD native (Helicobacter pylori, UniProt O24911); assay: ITC titration of TlpC LBD with ligand; format: binding; settings: for heat release or absorption on titration (binding): 5 mM ligand into 10 µM protein
Protocol: (§1) The expression vectors for single-point variants of TlpC LBD in which S104, Y151, K153, N213, I218 or Y285 were replaced by alanine, and Y249 by phenylalanine, were prepared from a TlpC-expressing plasmid described previously. This plasmid expresses codon-optimised H. pylori 26695 TlpC LBD consisting of amino acid residues 34–297 (Fig. 1a). Mutants were created using the QuikChange Mutagenesis Kit (Stratagene). TlpC LBD and its variants were expressed and purified following the previously published procedure.
(§2) Measurements were performed on a MicroCal VP-ITC instrument microcalorimeter (MicroCal) at 25 °C. […] The data was fitted to a single-site binding model using non-linear least-squares regression (Origin 7, OriginLab, USA), yielding the binding enthalpy ∆H, dissociation constant K D, and binding entropy […]. Each experiment was repeated three times.

McpP = test system: McpP; set-up: method as in PMID 26048936; settings: P. aeruginosa sCACHE receptor McpP; cited from earlier work
TlpC LBD = target: T1, TlpC LBD (Helicobacter pylori, UniProt O24911); assay: ITC titration of TlpC LBD variant with lactate; format: binding; settings: text prints Y285A substitution
T1 sequence (O24911 34-297 Y285F): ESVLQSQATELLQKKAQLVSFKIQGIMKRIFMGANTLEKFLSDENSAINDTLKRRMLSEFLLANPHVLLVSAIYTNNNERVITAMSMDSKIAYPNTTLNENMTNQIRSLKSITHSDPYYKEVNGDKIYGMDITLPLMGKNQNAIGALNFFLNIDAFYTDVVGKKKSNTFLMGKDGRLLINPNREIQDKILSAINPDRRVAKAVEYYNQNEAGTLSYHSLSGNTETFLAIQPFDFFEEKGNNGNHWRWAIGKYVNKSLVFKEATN

TlpC LBD N213A = target: T2, TlpC LBD N213A (Helicobacter pylori, UniProt O24911, N213A); assay: ITC titration of TlpC LBD variant with lactate; format: binding
T2 sequence (O24911 34-297 N213A): T1 sequence (O24911 34-297 Y285F)
Protocol: as §1, §2

TlpC LBD K153A = target: T3, TlpC LBD K153A (Helicobacter pylori, UniProt O24911, K153A); assay: ITC titration of TlpC LBD variant with lactate; format: binding
T3 sequence (O24911 34-297 K153A): T1 sequence (O24911 34-297 Y285F)
Protocol: as §1, §2

TlpC LBD S104A = target: T4, TlpC LBD S104A (Helicobacter pylori, UniProt O24911, S104A); assay: ITC titration of TlpC LBD variant with lactate; format: binding
T4 sequence (O24911 34-297 S104A): T1 sequence (O24911 34-297 Y285F)
Protocol: as §1, §2

TlpC LBD I218A = target: T5, TlpC LBD I218A (Helicobacter pylori, UniProt O24911, I218A); assay: ITC titration of TlpC LBD variant with lactate; format: binding
T5 sequence (O24911 34-297 I218A): T1 sequence (O24911 34-297 Y285F)
Protocol: as §1, §2

TlpC LBD Y151A = target: T6, TlpC LBD Y151A (Helicobacter pylori, UniProt O24911, Y151A); assay: ITC titration of TlpC LBD variant with lactate; format: binding
T6 sequence (O24911 34-297 Y151A): T1 sequence (O24911 34-297 Y285F)
Protocol: as §1, §2

[1] = test system: wild-type H. pylori PMSS1; assay: Swimming behaviour (direction change) chemotaxis assay, wild type; format: cell-based, Helicobacter pylori
H. pylori = settings: cited from earlier work

c1ccc(-c2ccccn2)nc1 [dipyridyl]
chemotaxis response (attractant) (ΔtlpC H. pylori PMSS1; 50 μM dipyridyl): retained chemotaxis responses

Cl [HCl]
chemotaxis response (repellent) (ΔtlpC H. pylori PMSS1; 10 mM HCl): retained chemotaxis responses

O=C(O)CC(O)C(=O)O (centres unmarked) [malate]
heat release or absorption on titration (binding) (TlpC LBD native): no significant heat release or absorption

CCC(=O)O [propionate]
binding to McpP (McpP): binds

CC(=O)C(=O)O [pyruvate]
binding to McpP (McpP): binds | heat release or absorption on titration (binding) (TlpC LBD native): no significant heat release or absorption

CC(=O)O [acetate]
binding to McpP (McpP): binds

CC(O)C(=O)O (centres unmarked) [lactate]
effect of substitution on lactate binding (TlpC LBD): abolished the binding | chemotactic response to lactate (ΔtlpC H. pylori PMSS1; all tested concentrations (0.1, 1, 10 mM)): abolished the chemotactic response; also recorded: drastically reduced | effect of substitution on lactate binding (TlpC LBD N213A): abolished the binding | Enthalpy, ∆H (TlpC LBD K153A): −12,730 ± 345.0 cal/mol | Entropy, ∆S (TlpC LBD K153A): −27.5 ± 1.0 cal/mol/degree | Enthalpy, ∆H (TlpC LBD S104A): −13,105 ± 318.0 cal/mol | Entropy, ∆S (TlpC LBD S104A): −28.2 ± 1.0 cal/mol/degree | Enthalpy, ∆H (TlpC LBD I218A): −18,145.0 ± 49.0 cal/mol | Entropy, ∆S (TlpC LBD I218A): −49.4 ± 0.2 cal/mol/degree | Enthalpy, ∆H (TlpC LBD Y151A): −12,040 ± 250.2 cal/mol | Entropy, ∆S (TlpC LBD Y151A): −24.1 ± 1.0 cal/mol/degree | chemotactic (attractant) response, direction changes in 3 s ([1]; 0.1 mM lactate): significant response; also recorded: strongest | chemotactic (attractant) response, direction changes in 3 s ([1]; 1.0 mM lactate): detectable | chemotactic (attractant) response, direction changes in 3 s ([1]; 10 mM lactate): not detectable; also recorded: did not elicit a positive chemotactic response | chemotactic (attractant) response, direction changes in 3 s ([1]; concentrations higher than 0.1 mM): lost the response | optimal concentration at which lactate is sensed as attractant ([1]; order of magnitude, tested 0.1-10 mM): 0.1 mM | Kd (McpP): 107 µM | Enthalpy, ∆H (TlpC LBD native; native TlpC LBD): −21,323.3 ± 713.0 cal/mol | Entropy, ∆S (TlpC LBD native; native TlpC LBD): −54.1 ± 2.0 cal/mol/degree | concentration with inhibitory effect on H. pylori growth (H. pylori): ≥ 10 mM | inhibitory effect on H. pylori viability among tested SCFA (H. pylori; short chain fatty acids secreted by LAB): strongest inhibitory effect

O=C(O)CC(=O)C(=O)O [oxaloacetate]
heat release or absorption on titration (binding) (TlpC LBD native): no significant heat release or absorption
